# Source: US12391686B2, “Compounds and uses thereof” (Foghorn Therapeutics Inc., priority 2019, dated 2025)
# Where two headings read alike, the source gives them in different places.
# Molecular target: T1, Nanoluciferase-BRD9 fusion protein (3×FLAG-NLuc-BRD9) in SYO-1 cells (Homo sapiens, UniProt Q9H8M2)
# T1 construct: expressed in transfected cells; host or cells: SYO-1
# T1 sequence (Q9H8M2 1-597): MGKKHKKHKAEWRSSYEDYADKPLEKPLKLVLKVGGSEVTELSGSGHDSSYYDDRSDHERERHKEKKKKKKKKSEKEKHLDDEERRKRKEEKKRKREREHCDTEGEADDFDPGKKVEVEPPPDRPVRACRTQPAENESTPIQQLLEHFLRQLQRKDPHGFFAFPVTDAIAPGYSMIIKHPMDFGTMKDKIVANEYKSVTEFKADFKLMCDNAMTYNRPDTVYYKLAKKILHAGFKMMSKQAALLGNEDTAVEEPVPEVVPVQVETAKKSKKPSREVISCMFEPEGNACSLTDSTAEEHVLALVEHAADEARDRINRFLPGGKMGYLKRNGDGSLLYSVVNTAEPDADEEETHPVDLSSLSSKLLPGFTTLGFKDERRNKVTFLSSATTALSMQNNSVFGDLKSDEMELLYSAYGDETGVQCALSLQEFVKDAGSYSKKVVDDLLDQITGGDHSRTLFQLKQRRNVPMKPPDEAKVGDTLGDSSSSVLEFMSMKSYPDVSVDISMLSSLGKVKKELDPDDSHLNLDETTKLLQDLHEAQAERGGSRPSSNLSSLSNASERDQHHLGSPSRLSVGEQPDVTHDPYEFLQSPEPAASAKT
# Assay: SYO1 BRD9 NanoLuc Degradation Assay
# Assay type: cell-based
# Conditions: SYO-1 cells expressing 3×FLAG-NLuc-BRD9, 6 hours incubation, 1 μM top dose, read-out: SYO1 BRD9-NanoLuc degradation IC50
# How it was run: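 NanoLuc signal, read by Nano-Glo luminescence after 6 h compound exposure, gives % inhibition against DMSO-treated cells (high control) and cells given 1 μM of a standard BRD9 degrader (low control). Test compounds ran as 10-point 3-fold series, top 1 μM final, in duplicate on SYO-1 cells stably expressing 3×FLAG-NLuc-BRD9.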
Structure (SMILES),DC50 (Table 6B) [nM],DC50 (Table 6C) [nM]
COc1cc(-c2cn(C)c(=O)c3cnc(N4CCC4)cc23)cc(OC)c1CN1CC(N2CCC(c3ccc4c(c3)C(=O)N(C3CCC(=O)NC3=O)C4)CC2)C1 (centres unmarked) [Compound D179],≥ 1000,–
COc1cc(-c2cn(C)c(=O)c3cnc(N(C)C)cc23)cc(OC)c1CN1CCC(N2CCN(C3CCC(=O)NC3=O)C(=O)C2)C1 (centres unmarked) [Compound D250],–,100 to 1000
COc1cc(-c2cn(C)c(=O)c3cnc(N4CC(C)(OC)C4)cc23)cc(OC)c1CN1CCC(CN2CCC3(CC2)CN(c2ccc4c(c2)C(=O)N(C2CCC(=O)NC2=O)C4)C3)CC1 (centres unmarked) [Compound D209],–,< 10
COc1cc2c(-c3cc(OC)c(CN4CCN(CCC5CCN(c6ccc7c(c6)C(=O)N(C6CCC(=O)NC6=O)C7)CC5)CC4)c(OC)c3)cn(C)c(=O)c2cn1 (centres unmarked) [Compound D225],–,< 10
COc1cc(-c2cn(C)c(=O)c3cnc(N(C)C)cc23)cc(OC)c1CN1CCN(C2(COc3ccc4c(c3)C(=O)N(C3CCC(=O)NC3=O)C4=O)CC2)CC1 (centres unmarked) [Compound D109],< 10,–
COc1cc(-c2cn(C)c(=O)c3cnc(N4CCC4)nc23)cc(OC)c1CN1CCC(CN2CCC3(CC2)CC(Oc2ccc4c(c2)C(=O)N(C2CCC(=O)NC2=O)C4)C3)CC1 (centres unmarked) [Compound D286],–,< 10
COc1cc(-c2cn(C)c(=O)c3cnc(S(N)(=O)=O)cc23)cc(OC)c1CN1CCC(CN2CCC3(CC2)CC(Oc2ccc4c(c2)C(=O)N(C2CCC(=O)NC2=O)C4)C3)CC1 (centres unmarked) [Compound D188],–,< 10
COc1cc(-c2cn(C)c(=O)c3cnc(C4CC4)cc23)cc(OC)c1CN1CC(Oc2ccc3c(c2)C(=O)N(C2CCC(=O)NC2=O)C3)C1 (centres unmarked) [Compound D300],–,< 10
COc1cc(-c2cn(C)c(=O)c3cnc(N(C)C)cc23)cc(OC)c1CN1CC(S(=O)(=O)NCCN2CCN(c3ccc4c(c3)C(=O)N(C3CCC(=O)NC3=O)C4=O)CC2)C1 (centres unmarked) [Compound D32],< 10,–
COc1cc(-c2cn(C)c(=O)c3cnc(OC(F)F)cc23)cc(OC)c1CN1CC(CN2CCC3(CC2)CN(c2ccc4c(c2)C(=O)N(C2CCC(=O)NC2=O)C4)C3)C1 (centres unmarked) [Compound D175],≥ 1000,–
COc1cc(-c2cn(C)c(=O)c3cnc(N(C)C)cc23)cc(OC)c1CN1CC(Oc2ccc3c(c2)C(=O)N(C2CCC(=O)NC2=O)C3=O)C1 (centres unmarked) [Compound D98],< 10,–
COc1cc(-c2cn(C)c(=O)c3cnc(N(C)C)cc23)cc(OC)c1CN1CCC(CCN2Cc3cc4c(cc3C2)C(=O)N(C2CCC(=O)NC2=O)C4=O)CC1 (centres unmarked) [Compound D59],< 10,–
CCn1cc(-c2cc(OC)c(CN3CCC(N4CCN(c5ccc6c(c5)CN(C5CCC(=O)NC5=O)C6=O)CC4)CC3)c(OC)c2)c2cc(N3CCC3)ncc2c1=O (centres unmarked) [Compound D123],< 10,–
COc1cc(-c2cn(C)c(=O)c3cnc(N(C)C)cc23)cc(OC)c1CN1CCC(CN2CCN(c3ccc4c(c3)C(=O)N(C3CCC(=O)NC3=O)C4=O)CC2)CC1 (centres unmarked) [Compound D57],< 10,–
COc1cc(N(C)C2CCN(c3ccc4c(c3)C(=O)N(C3CCC(=O)NC3=O)C4)CC2)c(OC)cc1-c1cn(C)c(=O)c2cnc(N(C)C)cc12 (centres unmarked) [Compound D279],–,< 10
COc1cc(-c2cn(C)c(=O)c3cnc(N(C)C)cc23)cc(OC)c1CN1CCN(CCC2CCN(c3ccc4c(c3)C(=O)N(C3CCC(=O)NC3=O)C4=O)CC2)CC1 (centres unmarked) [Compound D105],< 10,–
COc1cc(-c2cn(C)c(=O)c3cnc(N4CCC4)cc23)cc(OC)c1CN1CC(C(C)(C)N2CCC3(CC2)CN(c2ccc4c(c2)CN(C2CCC(=O)NC2=O)C4=O)C3)C1 (centres unmarked) [Compound D185],–,< 10
COc1cc(-c2cn(C)c(=O)c3cnc(N4CC5(CC5)C4)cc23)cc(OC)c1CN1CCC(CN2CCC3(CC2)CN(c2ccc4c(c2)C(=O)N(C2CCC(=O)NC2=O)C4)C3)CC1 (centres unmarked) [Compound D205],–,10 to 100
COc1cc(-c2cn(C)c(=O)c3cnc(C4CC4)cc23)cc(OC)c1CN1CCC(CN2CCC3(CC2)CC(Oc2ccc4c(c2)C(=O)N(C2CCC(=O)NC2=O)C4)C3)CC1 (centres unmarked) [Compound D302],–,< 10
COc1cc(-c2cn(C)c(=O)c3cnc(C(C)(C)O)cc23)cc(OC)c1CN1CCC(CN2CCC3(CC2)CC(Oc2ccc4c(c2)C(=O)N(C2CCC(=O)NC2=O)C4)C3)CC1 (centres unmarked) [Compound D228],–,< 10
